Usually Ki stands for the equilibrium dissociation constant of an inhibitor or competing ligand from its target. A high value points to lower affinity.

This assay has as its target T1, truncated form of PTP1B (first 321 amino acids) (Homo sapiens, UniProt P18031).
T1 construct: a truncated form of PTPI B (corresponding to the first 321 amino acids); made in house; host or cells: E. coli
T1 sequence (P18031 1-321 limits assumed): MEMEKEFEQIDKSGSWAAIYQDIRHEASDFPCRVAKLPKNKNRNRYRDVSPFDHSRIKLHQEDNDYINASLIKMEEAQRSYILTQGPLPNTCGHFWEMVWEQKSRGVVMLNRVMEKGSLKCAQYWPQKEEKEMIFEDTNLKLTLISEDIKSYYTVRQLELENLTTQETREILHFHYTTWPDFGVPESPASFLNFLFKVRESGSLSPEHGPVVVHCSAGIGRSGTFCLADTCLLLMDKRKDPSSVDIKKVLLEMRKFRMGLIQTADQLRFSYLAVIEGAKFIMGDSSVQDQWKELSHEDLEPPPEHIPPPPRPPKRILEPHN
The experiment in a line: Inhibition of PTP1B, p-nitrophenyl phosphate substrate, enzyme kinetic analysis. It counts as biochemical. As to conditions: truncated PTP1B expressed in E. coli; substrate p-nitrophenyl phosphate 0.16 to 10 mM; 50 mM HEPES pH 7.0; 25° C., 60 minutes. How it is done:
The compounds are evaluated for biological activity with a truncated form of PTPI B (corresponding to the first 321 amino acids), which was expressed in E. coli and purified to apparent homogeneity using published procedures well-known to those skilled in the art. The enzyme reactions are carried out using standard conditions essentially as described by Burke et al. (Biochemistry 35; 15989-15996 (1996)). The assay conditions are as follows. Appropriate concentrations of the compounds of the invention are added to the reaction mixtures containing different concentrations of the substrate, p-nitrophenyl phosphate (range: 0.16 to 10 mM—final assay concentration). The buffer used was 50 mM HEPES pH 7.0, 100 mM sodium chloride, 0.1% (w/v) bovine serum albumin, 5 mM glutathione, and 1 mM EDTA. The reaction was started by addition of the enzyme and carried out in microtiter plates at 25° C. for 60 minutes. The reactions are stopped by addition of NaOH. The enzyme activity was determined by measurement of the absorbance at 405 nm with appropriate corrections for absorbance at 405 nm of the compounds and p-nitrophenyl phosphate. The data are analyzed using nonlinear regression fit to classical Michaelis Menten enzyme kinetic models. Inhibition is expressed as Ki values in nM.

With `O=C(O)C(=O)Nc1sc2c(c1C(=O)O)CC(CN1Cc3c(O)cccc3C1=O)NC2` (stereo not shown) [Example 8, 5-(4-Hydroxy-1-oxo-1,3-dihydro-isoindol-2-ylmethyl)-2-(oxalyl-amino)-4,5,6,7-tetrahydro-thieno[2,3-c]pyridine-3-carboxylic acid], the affinity corresponds to a Ki of 250 nM.
The same measure for `O=C(O)C(=O)Nc1sc2c(c1C(=O)O)CCNC2CNC1=NS(=O)(=O)c2ccccc21` (stereo not shown) [Example 11, 7-((1,1-Dioxo-1H-benzo[d]isothiazol-3-ylamino)methyl)-2-(oxalyl-amino)-4,5,6,7-tetrahydro-thieno[2,3-c]pyridine-3-carboxylic acid]: 240 nM; for `COC(=O)c1cc(OC)cc2c1CN(CC1Cc3c(sc(NC(=O)C(=O)O)c3C(=O)O)CN1)C2=O` (stereo not shown) [Example 46, 5-(6-Methoxy-4-methoxycarbonyl-1-oxo-1 ,3-dihydro-isoindol-2-ylmethyl)-2-(oxalyl-amino)-4,5,6,7-tetrahydro-thieno[2,3-c]pyridine-3-carboxylic acid]: 300 nM; for `CC(=O)N(Cc1ccc(Oc2ccccc2)cc1)C[C@@H]1NCCc2c1sc(NC(=O)C(=O)O)c2C(=O)O` [Example 42, 7-(S)-((Acetyl-(4-phenoxy-benzyl)amino)methyl)-2-(oxalyl-amino)-4,5,6,7-tetrahydro-thieno[2,3-c]pyridine-3-carboxylic acid]: 220 nM.
The same measure for `O=C(O)C(=O)Nc1sc2c(c1C(=O)O)CC(CNC1=NS(=O)(=O)c3ccccc31)NC2` (stereo not shown) [Example 10, 5-((1,1-Dioxo-1H-benzo[d]isothiazol-3-ylamino)methyl)-2-(oxalyl-amino)-4,5,6,7-tetrahydro-thieno[2,3-c]pyridine-3-carboxylic acid]: 270 nM; for `COc1cccc2c1C(=O)N(CC1Cc3c(sc(NC(=O)C(=O)O)c3C(=O)O)CN1)C2` (stereo not shown) [Example 12, 5-(7-Methoxy-1-oxo-1,3-dihydro-isoindol-2-ylmethyl)-2-(oxalyl-amino)-4,5,6,7-tetrahydro-thieno[2,3-c]pyridine-3-carboxylic acid]: 570 nM.
The same measure for `O=C(O)C(=O)Nc1sc2c(c1C(=O)O)CC(CNC(=O)C(=O)c1c[nH]c3ccccc13)NC2` (stereo not shown) [Example 36, 5-((2-(1H-indol-3-yl)-2-oxo-acetylamino)methyl)-2-(Oxalyl-amino)-4,5,6,7-tetrahydro-thieno[2,3-c]pyridine-3-carboxylic acid]: 830 nM.

For the origin of these results see patent US6410556B1, “Modulators of protein tyrosine phosphateses (PTPases)” (Novo Nordisk A/S, priority 1999, dated 2002).
